From publication PMC6301090 (Nature medicine, 2018)

Molecular target: ΔF508-NBD1 (CFTR nucleotide binding domain 1) (Homo sapiens, UniProt P13569, F494N/DEL508-508)
Experiment: SPR

Kd: > 1000 µM
SMILES: O=C(O)Cc1c(Br)[nH]c2ccccc12 [BIA, bromoindole-3-acetic acid]
